These results are taken from DBAASP.

Each structure is given as a SMILES string. Converted amounts (≈) assume the structure as drawn. Some results are limits rather than exact numbers.

Test systems include Pseudomonas aeruginosa 9; Staphylococcus aureus; Lactococcus lactis; Bacillus cereus AS1.126; Escherichia coli AS1.349; Escherichia coli; Bacillus cereus; Salmonella typhimurium.
Experiment in all cases: ≥ marks a high value that may be exact or a test limit, other limits are often not marked, values filed in µg/mL are converted to µM
Test [1] concerns Klebsiella pneumoniae ESBL 61962.
In test [2] the test system is Pseudomonas aeruginosa H1030.
Test [3] has as its system Pseudomonas aeruginosa 213.
For test [4], the system named is Enterococcus faecalis W61950.
Test [5] concerns Pseudomonas aeruginosa H1027.
Test [6] deals with Pseudomonas aeruginosa 198.
Test [7] relates to Pseudomonas aeruginosa LES400.
Test [8] deals with Escherichia coli ESBL 63103.
The subject of test [9] is Enterococcus faecalis ATCC 29212.
In test [10] the test system is Escherichia coli ESBL 64771.
Test [11] has as its system Enterococcus faecium mic80.
The subject of test [12] is Enterobacter cloacae 218R.
For test [13], the system named is Stenotrophomonas maltophilia ATCC 13637.
For test [14], the system named is Enterococcus faecium t62764.
The subject of test [15] is Enterococcus faecalis f43559.
For test [16], the system named is Pseudomonas aeruginosa PAO1 H103.
Test [17] concerns Klebsiella pneumoniae ESBL 63575.
For test [18], the system named is Staphylococcus aureus C623.
Test [19] concerns Staphylococcus aureus ATCC 25923.
In test [20] the test system is Enterobacter cloacae CGMCC 1.58.
Test [21] relates to Lactococcus lactis AS1.1690.
Test [22] relates to Klebsiella aerogenes CGMCC 1.876.
The test system of test [23] is Staphylococcus aureus AS1.72.
For test [24], the system named is Klebsiella pneumoniae subsp. pneumoniae CGMCC 1.176.
The test system of test [25] is Lactobacillus acidophilus CGMCC 1.1854.
The subject of test [26] is Streptococcus salivarius CGMCC 1.2498.
For test [27], the system named is Enterococcus faecium CGMCC 1.2334.
The test system of test [28] is Streptococcus sanguinis CGMCC 1.2497.
Test [29] has as its system Streptococcus mutans CGMCC 1.2500.
For test [30], the system named is Escherichia coli ATCC 11775.
Test [31] relates to Candida albicans CMCC 98001.
Test [32] relates to Pseudomonas aeruginosa CGMCC 1.860.
In test [33] the test system is Fusobacterium nucleatum CGMCC 1.2526.
Test [34] has as its system Enterococcus faecalis CGMCC 1.595.
Test [35] relates to Staphylococcus aureus ATCC 12600.
In test [36] the test system is Staphylococcus aureus IAM 1011.
Test [37] concerns Escherichia coli JCM 1649.
In test [38] the test system is Photobacterium damselae subsp. piscicida Sp 9587.
The subject of test [39] is Vibrio anguillarum NCIMB 829.
In test [40] the test system is Aeromonas salmonicida NCIMB 1102.
Test [41] relates to Bacillus subtilis IAM 1026.
For test [42], the system named is Vibrio parahaemolyticus Vp+1.
Test [43] deals with Shewanella putrefaciens IAM 1509.
The test system of test [44] is Escherichia coli PCM 2057.
Test [45] has as its system Staphylococcus aureus PCM 1944.

Turning to `CC(C)[C@H](NC(=O)[C@H](CCCN=C(N)N)NC(=O)[C@H](CCCCN)NC(=O)[C@@H](NC(=O)[C@H](Cc1ccccc1)NC(=O)[C@H](CCCCN)NC(=O)[C@H](Cc1c[nH]c2ccccc12)NC(=O)[C@@H](NC(=O)[C@H](C)N)C(C)C)C(C)C)C(=O)O` [AVWKFVKRV], the MIC in test [1] is at least 186 µM; in test [2] it was at least 186 µM; in test [3], at least 186 µM; in test [4], at least 186 µM; in [5] it was at least 93.6 µM; in test [6], at least 186 µM. Also, the MIC in test [7] was at least 186 µM; in the test on Pseudomonas aeruginosa 9, at least 186 µM; in [8] it was at least 186 µM; in [9], over 186 µM; in [10], at least 93.6 µM; in test [11], at least 93.6 µM. For the same compound, the minimum inhibitory concentration (MIC) in [12] was at least 186 µM; in [13], at least 46.8 µM; in test [14] it was at least 93.6 µM; in [15], at least 186 µM; in [16] it was at least 186 µM; in test [17], at least 186 µM. The minimal inhibitory concentration (MIC) was at least 186 µM in test [18] and 186 µM (≈ 211 µg/mL) in test [19].
Turning to `CC[C@H](C)[C@H](N)C(=O)N[C@@H](CC(C)C)C(=O)N1CCC[C@H]1C(=O)N[C@H](C(=O)N[C@@H](CC(C)C)C(=O)N[C@@H](CO)C(=O)N[C@@H](CC(C)C)C(=O)N[C@H](C(=O)NCC(=O)NCC(=O)N[C@@H](CC(C)C)C(=O)N[C@@H](CC(C)C)C(N)=O)[C@@H](C)CC)[C@@H](C)CC` [ILPILSLIGGLL], the MIC was at least 250 µM in test [20]; 41 µM (≈ 50 µg/mL) against Staphylococcus aureus; at least 62.5 µM in test [21]; at least 41 µM against Lactococcus lactis; at least 250 µM in [22]; at least 62.5 µM in [23]. Moreover, the minimal inhibitory concentration (MIC) against Bacillus cereus AS1.126 was at least 62.5 µM; in test [24], at least 175 µM; in the test on Escherichia coli AS1.349, at least 125 µM; in test [25], at least 37.5 µM; against Escherichia coli it was over 100 µM; in test [26], at least 75 µM. For the same compound, the MIC is at least 125 µM in test [27]; at least 37.5 µM in test [28]; at least 50 µM in [29]; at least 100 µM in test [30]; at least 41 µM against Bacillus cereus; at least 50 µM in [31]. In addition, the MIC is at least 125 µM in [32], at least 75 µM in test [33], at least 125 µM in test [34] and at least 100 µM in [35].
On to `CC[C@H](C)[C@H](NC(=O)[C@H](CC(N)=O)NC(=O)[C@H](CO)NC(=O)[C@H](CC(C)C)NC(=O)[C@H](C)NC(=O)CNC(=O)[C@H](Cc1ccccc1)NC(=O)[C@H](CC(C)C)NC(=O)[C@H](CO)NC(=O)[C@@H]1CCCN1C(=O)[C@@H](NC(=O)[C@H](CC(C)C)NC(=O)[C@H](CCCCN)NC(=O)[C@@H](NC(=O)[C@H](CC(C)C)NC(=O)[C@H](Cc1ccccc1)NC(=O)CNC(=O)[C@H](Cc1ccccc1)NC(=O)[C@@H](N)CC(C)C)[C@@H](C)CC)[C@@H](C)CC)C(=O)NCC(=O)N[C@@H](CCCN=C(N)N)C(=O)N[C@@H](CC(N)=O)C(=O)N[C@@H](CCCN=C(N)N)C(=O)N[C@@H](CC(N)=O)C(=O)N[C@@H](CCC(N)=O)C(=O)O` [LFGFLIKLIPSLFGALSNIGRNRNQ], for which the minimum inhibitory concentration (MIC) in test [36] came out at 2.24 µM (≈ 6.25 µg/mL); in test [37] it was 17.9 µM (≈ 50 µg/mL); in test [38], 4.48 µM (≈ 12.5 µg/mL); in test [39], 17.9 µM (≈ 50 µg/mL); in [40] it was 17.9 µM (≈ 50 µg/mL); in [41], 8.96 µM (≈ 25 µg/mL). Moreover, the MIC in test [42] came to 8.96 µM (≈ 25 µg/mL); in test [43], 4.48 µM (≈ 12.5 µg/mL); against Salmonella typhimurium, 17.9 µM (≈ 50 µg/mL).
On to `CC[C@H](C)[C@H](NC(=O)[C@@H](NC(=O)[C@@H](N)CO)C(C)C)C(=O)NCC(=O)N[C@H]1CSSC[C@@H](C(=O)N[C@@H](Cc2ccccc2)C(=O)N[C@H](C(=O)N[C@@H](CCCCN)C(N)=O)C(C)C)NC(=O)[C@@H]2CCCN2C(=O)[C@H](CCCN=C(N)N)NC(=O)[C@@H]2CCCN2C(=O)[C@@H]2CCCN2C(=O)[C@H]([C@@H](C)CC)NC(=O)[C@H](CO)NC(=O)[C@H](Cc2ccccc2)NC(=O)[C@H]([C@@H](C)O)NC(=O)[C@H](Cc2c[nH]c3ccccc23)NC1=O` [SVIGCWTFSIPPRPCFVK], for which the MIC in test [44] and in test [45] was at least 491 µM in each case.

A word on the MIC: it is the least concentration at which growth counts as inhibited. High values mean a less susceptible organism, low ones a more susceptible organism.
